# Experimental data: patent US7179645B2 (priority 2002, dated 2007)
# Where a SMILES comes first, the peptide text is derived from it. [ ]: non-standard residue; d: D form. The star is where a group is joined. Cbz = O=C(OCc1ccccc1)*; ava = not defined here
# What was measured:
# [1] = test system: primary mouse macrophages and macrophage-like cell lines; settings: cited from earlier work
# [2] = test system: patients with resected melanoma; settings: human, in vivo; cited from earlier work
# [3] = test system: C3H/HeJ mice (H-2^k); antibodies against the PGCC(95–104) epitope peptide; settings: mouse, in vivo
# [4] = test system: lymphocytes from HLA-B7+ normal blood donors; settings: cited from earlier work
# [5] = test system: early stage breast cancer patients; settings: in vivo; cited from earlier work
# [6] = test system: B10(A) 5R mice; splenic CD3+/CD4+ T-helper cells; assay type: in vivo, mouse; settings: splenic cells day 26, double color FACS
# Text: To test the mechanism for the much greater immunogenecity of Ii-Key/epitope hybrids epitope peptides, B10(A) 5R mice were immunized with 10 nmole of either gp160(843–855) peptide or Ii-Key/gp160(843–855) in CFA subcutaneously at the right side of the base of the tail. On day 10 the mice were boosted with 40 nmole of hybrid peptide or epitope peptide in saline by intravenous injection. On day 26 mice were sacrificed and splenic cells were obtained. 1×10^6 splenic mononuclear cells were stimulated overnight in the presence of 10 units of recombinant IL-2 and indicated peptides (10 μg/ml). During the last 3 hours of incubation, 2 μM monensin (Golgi-stop, Pharmingen) was added to the cultures, and cells were then stained for both cellular surface markers and intracellular IFN-γ. The FACS assay to quantify antigen specific Th1 helper cell responses was performed as follows. The cells were incubated with 1 μg […] (FC/block, Pharmingen) per 10^6 cells in 100 μl of staining buffer (Dulbecco's phosphate-buffered saline solution without magnesium or calcium). Those cells were stained at 10^6 cells/100 μl with either rat-anti-mouse CD3 or CD4 monoclonal antibodies for 30 min at 4° C. After washing, the cells were re-suspended, fixed with 4% formaldehyde, and permeablized with 0.5% saponin for 20 min at 4° C. The cells were suspended in staining buffer with 0.5% saponin, and stained with the appropriate anti-cytokine or isotype control antibody (IFN-γ, XMG1.2, Pharmingen or IFN-γ isotype control, R3–34, Pharmingen). The cells were incubated for 30 min at 4° C. in the dark, washed and fixed for 10 min with 0.3% formaldehyde in 0.5% saponins in staining buffer for flow cytometric analysis. Flow cytometric analysis was performed as follows. First, CD3^+ cells were gated using dual color dot plot of side scatter versus CD3 FITC as the T-gate population. The CD3^+ cells were then analyzed for CD4 expression to target the CD3^+/CD4^+ T-helper cell population. […]
# [7] = test system: C3H/HeJ(H-2^k) mice; splenic T cells; assay type: in vivo, mouse; settings: for IFN-γ/Th-1 responses to the HIV gp160(843–855) epitope (ELISPOT): C3H/HeJ mice, 40 nmole, boosts day 13 and 31, spleens day 35
# Procedure: An ELISPOT assay for IFN-γ cytokine responses was performed in order to titer more exactly splenic T lymphocyte subset responses to immunization with Ii-Key-ava-gp160(843–855) or gp160(843–855). The assay was performed as follows. A solution of the cytokine-specific capture antibody (100 μl at 6 μg/ml in phosphate-buffered saline solution, pH 7.2) was added to each well of a 96-well Immunospot plate (M200) for an overnight incubation at 4° C. After aspiration, phosphate-buffer saline solution 200 μl containing 10% fetal bovine serum and 1% penicillin-streptomycin-glutamine (mouse medium) was added to each well for 2 hr at RT. After washing four times with 1% Tween-20 in phosphate-buffered saline solution (wash buffer I), 100 μl of single cell suspensions from the spleens of immunized mice at 10^6 cells/well were re-stimulated with 100 μl of peptide-epitope at 5 μg/well in mouse medium and incubated for 20–40 hr at 37° C., 5% CO2. After washing twice with phosphate-buffered saline solution (wash buffer II) and four times with wash buffer 1,100 μl of 2 μg/ml biotinylated anti-mouse IFN-γ in 1× phosphate buffer saline with 10% fetal bovine serum (dilution buffer) was added to each well for 2 hr at RT. After washing five times with wash buffer 1,100 μl of streptavidin-horse radish peroxidase conjugate (1:500) in dilution buffer was added to each well for 1 hr at RT. After washing four times with wash buffer I and two times with wash buffer II, 100 μl of the 3-amino-9-ethylcarbazole/H2O2 substrate (Pharmingen 551951) was added and incubated for 30–60 min in the dark at RT. The reaction was stopped by washing three times with 200 μl of deionized water. ELISPOT data analysis was performed by using the Immunospot 1.7e software (Cellular Limited Technology). Digitized images of quadruplicate wells were analyzed for the presence of spots in which color density exceeds background based on comparison of control cells (naive splenocytes) and experimental cells (splenocytes of immunized mice) cells. Additional counting parameters for spot size and circularity were applied to gate out speckles caused by non-specific antibody binding. Each spot represents a single cell secreting IFN-γ.
# C3H/HeJ(H-2^k) mice were immunized with 40 nmole of peptides (50 μl) emulsified with equal volume of incomplete Freund's adjuvant (IFA), subcutaneously at the base of the tail. On day 13 the mice were boosted subcutaneously at the base of the tail with 40 nmole of peptides (50 μl) emulsified with equal amount of incomplete Freund's adjuvant (IFA). On day 31, the mice were boosted intravenously with 40 nmole peptides dissolved in 100 μl Hank's balanced salts solution (HBSS). […]
# [8] = test system: mice in an ovalbumin-induced asthmatic response; settings: mouse, in vivo; cited from earlier work
# [9] = test system: B10.A (5R) mice; antibodies against the HIV gp160(843–855) peptide; assay type: in vivo, mouse; settings: peptides in saline solution; for Antibody induction (ELISA), Dilution^−1 20: serum day 35, against HIV gp160(843–855) peptide, serum dilution^−1 20; for Antibody induction (ELISA), Dilution^−1 60: serum day 35, serum dilution^−1 60; for Antibody induction (ELISA), Dilution^−1 180: serum day 35, serum dilution^−1 180; for Antibody induction (ELISA), Dilution^−1 540: serum day 35, serum dilution^−1 540
# Procedure: An ELISA assay for antibody responses following immunization with the experimental peptides indicated above was performed as follows. Fifty microliters (μl) of a solution of the coating peptide at 2 μg/well in 0.1 M carbonate buffer, pH 9.5 was added to each well of a 96-well Nunc-immunoplate (#442404) for an overnight incubation at 4° C. After aspiration, 250 μl of phosphate-buffer saline solution containing 3% fetal bovine serum (assay diluent) was added to each well for 2 hr at RT. After washing three times with assay diluent, 50 μl of 20-times diluted mouse serum in 1:3 serial dilution in assay diluent was added to each well for 2 hr at RT. After washing three times with assay diluent, 50 μl of 1 μg/ml biotinylated goat anti-mouse IgG1 or IgG2a was added to each well and incubated for 1 hr at RT. After washing three times with assay diluent, 50 μl of streptavidin-horse radish peroxidase conjugate (1:1000) was added to each well and incubated for 30 min at RT. After washing three times with assay diluent, 100 μl of tetramethylbenzidine/H2O2 solution (Pharmingen 264 KK) was added to each well for 15 min in the dark at room temperature. The reaction was stopped with 100 μl 1N H2SO4 in each well and the absorbance was read immediately at 450 nm.
# B10.A (5R) mice (H-2) were immunized with 20 nmole of peptides in 50 μl phosphate-buffered saline solution, intramuscularly in right and left rear legs on days 1 and 2, respectively. On day 14 the mice were boosted intramuscularly with 40 nmole of peptides in 200 μl Hank's balanced salts solution intramuscularly in a rear leg. On day 30 the mice were boosted intravenously with 40 nmole peptides dissolved in Hank's balanced salts solution (HBSS). On day 35 the mice were sacrificed and serum samples were assayed for antibody titers against the HIV gp160(843–855) peptide.
# [10] = test system: tumor cells expressing HLA-A24 and CEA; settings: cited from earlier work
# [11] = test system: HLA alleles of the A2 supertype (A2.2, A2.3, A2.6 and A6802); settings: cited from earlier work
# [12] = test system: MBP-specific autoantibodies in the CSF; settings: human, in vivo; cited from earlier work
# [13] = IFN-γ ELISPOT, C3H/HeJ(H-2^k) mice, spleens day 35, re-stimulated with HIV gp160(843–855) peptide
compound,measurement,setting,value
CC(C)C[C@@H](C=O)NC(=O)[C@H](CC(C)C)NC(=O)[C@H](CC(C)C)NC(=O)OCc1ccccc1 [MG132] (Cbz-Leu-Leu-Leu-aldehyde),LeTx cytotoxicity,[1],efficiently block
YMDGTMSQV [tyrosinase(368–376)(370D)],patients developing a positive skin test response,[2],none
"Ac-IAYLKQATAK-NH2 [PGCC, reference compound]","Antibody induction (ELISA), Dilution^−1 1620",[3],−0.003
same,"Antibody induction (ELISA), Dilution^−1 4860",[3],0.003
IPQQHTQVL [CEA9(632)],primary CTL responses,[4],induced primary CTL responses
CC/C(=C(\c1ccccc1)c1ccc(OCCN(C)C)cc1)c1ccccc1 [tamoxifen],overall survival,[5],benefited overall survival
same,survival,[5],did not improve survival
gp160 (843–855) (LRMKAYRAIRHIPR),Percentage of cells CD3^+/IFN-γ^+,[6],2.05%
same,Percentage of cells CD4^+,[6],31.03%
same,Percentage of cells CD4^+/IFN-γ^+,[6],0.94%
same,Number (mean number of spots and standard deviation in triplicate wells),[7]; [13],5 (+/−3.6)
same,Size (mean spot size and standard deviation),[7]; [13],0.019 (+/−0.01) mm^2
ISQAVHAAHAEINAAGR [336E-A],airway eosinophilia and OVA-specific IL-4 and IL-5 production,[8],significant decrease
Ii-Key/two-ava/gp160 (843–855) (Ac-LRMK[ava][ava]AYRAIRHIPR-NH2; reading uncertain),"Antibody induction (ELISA), Dilution^−1 20",[9],0.131
same,"Antibody induction (ELISA), Dilution^−1 60",[9],0.039
same,"Antibody induction (ELISA), Dilution^−1 180",[9],0.027
same,"Antibody induction (ELISA), Dilution^−1 540",[9],0.003
Ii-Key/one-ava/gp160 (843–855) (Ac-LRMK[ava]AYRAIRHIPR-NH2; reading uncertain),"Antibody induction (ELISA), Dilution^−1 20",[9],0.600
same,"Antibody induction (ELISA), Dilution^−1 60",[9],0.157
same,"Antibody induction (ELISA), Dilution^−1 180",[9],0.073
same,"Antibody induction (ELISA), Dilution^−1 540",[9],0.024
QYSWFVNGTF [9.5.4],elicitation of CTL lines lysing tumor cells expressing HLA-A24 and CEA,[10],elicited CTL lines that lysed tumor cells
Ac-LRMK-AYRAIRHIPR-NH2 [gp160(843–855)],IFN-γ/Th-1 responses to the HIV gp160(843–855) epitope (ELISPOT),[7],IFN-γ/Th-1 responses were elicited
Ac-LRMK-ava-YRAIRHIPR-NH2 [Ii-Key/one-ava/gp160(844–855)],IFN-γ/Th-1 responses to the HIV gp160(843–855) epitope (ELISPOT),[7],IFN-γ/Th-1 responses were elicited
CC(=O)N[C@@H](CSC(=O)[C@]1([C@@H](O)C(C)C)NC(=O)[C@H](C)[C@@H]1O)C(=O)O [lactacystin],LeTx cytotoxicity,[1],efficiently block
HLFYSWYK [9.5.6],elicitation of CTL lines lysing tumor cells expressing HLA-A24 and CEA,[10],elicited CTL lines that lysed tumor cells
LMTFWNPPV [9.5.2],binding to other common HLA alleles of the A2 supertype,[11],bound tightly
same,anti-tumor CTL responses,[10],induced vigorous anti-tumor CTL responses
Gp160 (843–855) (LRMKAYRAIRHIPR),"Antibody induction (ELISA), Dilution^−1 20",[9],0.052
same,"Antibody induction (ELISA), Dilution^−1 60",[9],0.023
same,"Antibody induction (ELISA), Dilution^−1 180",[9],0.000
same,"Antibody induction (ELISA), Dilution^−1 540",[9],−0.005
P85VVHFFKNIVTP96 (PVVHFFKNIVTP; listed as Homo sapiens),neurological or systemic side effects,[12],No neurological or systemic side effects were observed
same,tolerance to MBP,[12],induced tolerance
